pIC50: −log10 of the molar value. Calls of active or inactive are those of the source. The calls are words filed in the database; no cut-off is given here.
Legend:
Hepatitis B virus [1] = assay: Antiviral activity against hepatitis B viral in human HepG2.2.15 cells assessed as HBeAg secretion after 9 days by ELISA; format: functional, organism-based; conditions: HepG2 2.2.15, 216 h
[2] = Selectivity index, ratio of CC50 for human HepG2.2.15 cells to IC50 for decrease in hepatitis B viral surface antigen HBsAg secretion in human HepG2.2.15 cells; format: functional
Hepatitis B virus [3] = assay: Antiviral activity against hepatitis B viral in human HepG2.2.15 cells assessed as surface antigen HBsAg secretion after 9 days by ELISA; format: functional, organism-based; conditions: HepG2 2.2.15, 216 h
[4] = Cytotoxicity against human HepG2.2.15 cells assessed as cell death after 9 days by MTS assay; format: cell-based, HepG2 2.2.15
[5] = Selectivity index, ratio of CC50 for human HepG2.2.15 cells to IC50 for decrease in hepatitis B viral HBeAg secretion in human HepG2.2.15 cells; format: functional
Hepatitis B virus [6] = assay: Antiviral activity against hepatitis B viral in human HepG2.2.15 cells assessed as viral HBcAg level after 9 days by ELISA (reference value: 14.16 +/- 1.92 ng/ml); format: functional, HepG2 2.2.15
Hepatitis B virus [7] = assay: Antiviral activity against hepatitis B viral in human HepG2.2.15 cells assessed as viral surface antigen HBsAg level after 9 days by ELISA (reference value: 721 +/- 32 pg/ml); format: functional, HepG2 2.2.15
Hepatitis B virus [8] = assay: Antiviral activity against hepatitis B viral in human HepG2.2.15 cells assessed as viral DNA replication after 9 days by real-time PCR analysis (reference value: 6.12 +/- 1.46 AU); format: functional, HepG2 2.2.15
HepG2 2.2.15 [9] = assay: Induction of autophagy in HBV-infected human HepG2.2.15 cells assessed as decrease in NTCP level after 12 to 24 hrs by Western blot analysis; format: functional
[10] = Antiproliferative activity against human HepG2.2.15 cells assessed as cell growth at 20 uM after 0 to 24 hrs by MTT assay; format: cell-based; conditions: hepg2 2.2.15, 20 µM
HepG2 2.2.15 [11] = assay: Induction of autophagy in HBV-infected human HepG2.2.15 cells assessed as decrease in APOA1 level after 12 to 24 hrs by Western blot analysis; format: functional
[12] = target: Sodium/bile acid cotransporter NTCP (Homo sapiens) (UniProt Q14973); assay: Induction of human NTCP receptor inhibition-mediated autophagy in HBV-infected human HepG2.2.15 cells assessed as MDC positive cells at 20 uM after 12 hrs by […] (reference value: 0.60%); design: scale not given: the % may be the effect or the level left
HepG2 2.2.15 [13] = assay: Induction of autophagy in HBV-infected human HepG2.2.15 cells assessed as decrease in HBx level after 12 to 24 hrs by Western blot analysis; format: functional
[14] = target: Sodium/bile acid cotransporter NTCP (Homo sapiens) (UniProt Q14973); assay: Induction of human NTCP receptor inhibition-mediated autophagy in HBV-infected human HepG2.2.15 cells assessed as MDC positive cells at 20 uM after 24 hrs by […] (reference value: 0.60%); design: scale not given: the % may be the effect or the level left

Sequence of Sodium/bile acid cotransporter NTCP (Homo sapiens) (Q14973 whole entry, looked up): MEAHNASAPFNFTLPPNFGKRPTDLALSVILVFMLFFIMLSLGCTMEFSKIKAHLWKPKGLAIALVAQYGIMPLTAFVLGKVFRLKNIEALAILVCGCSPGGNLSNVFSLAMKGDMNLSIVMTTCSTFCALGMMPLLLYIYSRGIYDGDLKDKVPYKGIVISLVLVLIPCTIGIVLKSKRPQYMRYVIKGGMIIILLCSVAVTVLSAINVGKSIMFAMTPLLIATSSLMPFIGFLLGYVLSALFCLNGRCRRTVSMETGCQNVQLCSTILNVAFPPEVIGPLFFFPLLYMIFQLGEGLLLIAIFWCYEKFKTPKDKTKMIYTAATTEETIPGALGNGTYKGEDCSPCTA

Structure (SMILES)	pIC50 (Hepatitis B virus [1])	Selectivity Index [2]	pIC50 (Hepatitis B virus [3])	CC50 at 216 h [4] [µM]	Selectivity Index [5]	Activity (Hepatitis B virus [6]) [pg/mL]	Activity (Hepatitis B virus [7]) [pg/mL]	Activity (Hepatitis B virus [8]) [a.u.]	inhibition (HepG2 2.2.15 [9])	Activity [10]	inhibition (HepG2 2.2.15 [11])	Activity [12] [%]	inhibition (HepG2 2.2.15 [13])	Activity [14] [%]
COC(=O)Nc1nc2nc(C(=O)c3cccc(OC)c3)ccc2[nH]1	3.78	1.89	4.39	78.1	0.47									
COC(=O)Nc1nc2nc(C(=O)c3ccc(OC)c(OC)c3)ccc2[nH]1	4.11	2.74	4.43	102	1.3									
COC(=O)Nc1nc2cc(C(=O)c3ccc(F)cc3)ccc2[nH]1 [FLUBENDAZOLE]		2.5			4.75	10100	361	3.76						
COC(=O)Nc1nc2nc(C(=O)c3ccc(O)c(OC)c3)ccc2[nH]1	4.60	11	4.75	197	7.86	8140	258	2.46	Active	Toxic	Active	9.3	Active	31.1
COC(=O)Nc1nc2cc(C(=O)c3ccco3)ccc2[nH]1	< 3.00		< 3.00	> 1000										
COC(=O)Nc1nc2cc(C(=O)c3cccc(OC)c3)ccc2[nH]1	3.32	1.19	4.01	117	0.24									
COC(=O)Nc1nc2ccc(C(=O)c3ccccc3)cc2[nH]1 [MEBENDAZOLE]	< 3.00		< 3.00	> 1000										
COC(=O)Nc1nc2cc(C(=O)c3ccccn3)ccc2[nH]1	< 3.00		< 3.00	> 1000										
COC(=O)Nc1nc2cc(C(=O)c3ccc(O)c(OC)c3)ccc2[nH]1	3.67	3.55	4.53	105	0.49									
COC(=O)Nc1nc2cc(C(=O)c3ccc(OC)c(OC)c3)ccc2[nH]1	3.51	0.25	3.72	48.5	0.15									
COC(=O)Nc1nc2cc(C(=O)c3cccc(F)c3)ccc2[nH]1	3.40	0.09	3.61	21.2	0.05									
Nc1ncnc2c1ncn2CCOCP(=O)(O)O [ADEFOVIR]	3.67	1.9	3.59	490	2.27	12100	571	4.12						

From ChEMBL document CHEMBL3399962, “Design and synthesis of a novel candidate compound NTI-007 targeting sodium taurocholate cotransporting polypeptide [NTCP]-APOA1-HBx-Beclin1-mediated autophagic pathway in HBV therapy” (Bioorg Med Chem, 2015)
